Results from patent US20120015901A1, “METHODS AND PREPARATIONS FOR PROTECTING CRITICALLY ILL PATIENTS” (priority 2009, published 2012).
“Also recorded” adds a separate entry of the source.

Columns and labels:
[1] = test system: chronologically aging wild type yeast cells; test: Yeast cell death and oxidative stress markers (DHE, Annexin V/PI); format: cell-based
From the text: For chronological aging experiments, cultures were inoculated from fresh overnight cultures to OD600 of 0.1 (˜1·10^6 cells/ml) with culture volume being 10% of flask volume and aliquots were taken out to perform survival plating at indicated time points (Herker, at al. (2004) J. Cell Biol. 164, 501-507. Survival at day 1 of wild type control cultures was set to 100% and other samples calculated accordingly. If not otherwise indicated, representative aging experiments are shown with at least three independent samples (as indicated) aged at the same time, which have been repeated at least twice with similar outcome. In case of experiments with Δspe1 (FIG. 24 A-E), all strains were inoculated to 5·10^4 cells/ml. Upon deletion of both IKI3 and SAS3 we observed slight aggregation of cells possibly due to a defect in late budding events. Therefore, for calculation of survival rates in experiments using Δiki3Δsas3, cell numbers of each sample were determined after two pulse of sonication on ice with Sonifier 250 from Benson (Duty Cycle: 35; Output Control: 2.5). Tests for apoptotic (TUNEL and Annexin V staining) and necrotic (PI staining) markers as well as markers for oxidative stress (DHE staining) were performed as described in Dod et al. (1982) Eur J Biochem 121, 401-405). For quantifications using flow cytometry (BD FACSAria), 30,000 cells were evaluated and analyzed with BD FACSDiva software. Spermidine (S4139, Sigma, Austria) and putrescine (P5780, Sigma, Austria; 1 mM final concentration) were added to stationary cultures at day 1 of the aging experiments (24 h after inoculation). 1 M aqueous stock solution of spermidine was stored in one use aliquots at −20° C. for no longer than 1 month. For adjustment of extracellular pH (pHex) to 6 (±0.5), the required amount of sodium hydroxide was added 30 h after inoculation. […]
As a further marker for necrosis, nuclear release of the yeast HMGB1 homolog (Nhp6Ap) was monitored by epifluorescence microscopy of ectopically expressed chimeric fusion protein Nhp6Ap-EGFP. […]

critically ill rabbits [2] = test: Toxicity of spermidine, sequential up-down allocation; format: in vivo, rabbit
Experimental: The toxicity of spermidine was assessed using a sequential up-down allocation technique. The administered dose of spermidine was determined by the response of the previous animal to a higher or lower dose (with incremental/decremental steps per 300 mg/d; minimum dose 600 mg/d). When the animal survived until day 4, this was considered as absence of acute toxicity. Mortality during the first 3 days was considered as acute toxicity. When there was no acute toxic effect, the next included animal would receive 300 mg spermidine/day more. When there was an acute toxic effect, the next included animal would receive 300 mg/day less (until the starting dose as a minimum). […] The protocol was otherwise similar as in the experiments described previously.

[3] = test system: general HAT activity in extracts of mammalian nuclei; test: HAT activity assay, nuclear extract of HeLa-cells; format: biochemical; conditions: extracts of mammalian nuclei (data not shown); spermidine 100 mM
Experimental: For HAT-activity determination the commercially available HAT Activity Colorimetric Assay KIT from BioVision (Bio Vision K332-100) was employed. HAT assays were performed according to the manufacturer's protocol. In brief, assays were performed with each 15 μg of yeast nuclear extract or nuclear extract of HeLa-cells (Bio Vision K332-100-4), respectively. Spermidine was added at a final concentration of 100 mM 15 minutes after assay initiation. Development of tetrazolium dye was measured by absorption at 440 nm using a GeniosPro plate reader (Tecan). Background readings were done with samples without NADH generating enzyme, giving the nuclear extracts unspecific background activity and eliminate any possible negative effects of spermidine addition on the assay itself. […] Regression coefficients of R^2>0.99 were obtained. Calculated slopes of spermidine treated samples were compared to slopes of untreated samples which were set to a relative activity of 100%.

critically ill rabbits [4] = test: Proof-of-concept outcome study, interim analysis (15 animals per group)
Experimental: Based on the pilot study, two doses of spermidine (30 and 100 mg/day) were selected to continue with.
An a priori planned interim analysis was performed after having included 15 animals per group, for selecting 1 spermidine-group to be completed next to the saline-group until 58 animals per group are included. After the interim analysis, the codes of the vials were changed, so that the proceeding of the study was again carried out blinded.
Based on the pilot study, two doses of spermidine are selected (30 and 100 mg/day) to continue with.
An interim analysis was performed after having included 15 animals per group, for selecting 1 spermidine-group that will be completed next to the saline-group until 58 animals per group are included. After the interim analysis, the codes of the vials are changed, so that the proceeding of the study is again carried out blinded.

[5] = test system: chronologically aged yeast cultures; test: Oxygen consumption and fractionation of upper and lower (quiescent) cells; format: cell-based
Experimental: Oxygen consumption was directly determined in 1.7 ml of chronologically aged yeast cultures transferred to a recording chamber by measuring the decline of oxygen concentration under anaerobic conditions using an oxygen electrode. Slopes were calculated over 15 min within the linear decrease of oxygen (minute 2-17) and normalized to living cells as determined by plating on YEPD agar plates.
Cells were cultured in SCD media as described in section on “Yeast Strains and Molecular Biology”. Percoll density gradient centrifugation was performed according to Allen et al. (Allen et al. (2006) J Cell Biol 174, 89-100). Cell counts for each fraction were determined using a CASY cell counter (Innovatis).

[6] = spermidine treatment during chronological aging

NCCCCNCCCN [spermidine]
loss of membrane integrity (PI positivity and Annexin V+PI+) ([1]; after 18 days of aging, 50% without spermidine): less than 10% | externalization of phosphatidylserine (Annexin V+PI− cells), early apoptotic marker [1, 6]: remained largely unaltered | markers of necrosis and oxidative stress (DHE positivity) [1, 6]: drastically diminished | time of death after starting the spermidine infusion (critically ill rabbits [2]; continuous infusion of approximately 600 mg/day, both of two animals): 28 h | dose without acute toxic effects (critically ill rabbits [2]; half of the toxic dose, highest dose of the pilot study): 300 mg/day | dose with acute toxic effects (critically ill rabbits [2]; mortality during the first 3 days): 600 mg/day | dose with acute toxic effects (critically ill rabbits [2]; per kg body weight): approx 200 mg/kg/day | dose without acute toxic effects (critically ill rabbits [2]; per kg body weight): approximately 100 mg/kg/day | general HAT activity [3]: efficiently inhibited | mortality (critically ill rabbits [4]; 7 days after injury, 30 and 100 mg/day, both doses equal, placebo >50%): about one third; also recorded: much lower | rise in renal p62 levels (autophagic flux marker) (critically ill rabbits [4]; kidney, compared to saline-treated animals): attenuated | plasma spermidine concentration (critically ill rabbits [4]; spermidine 30 mg/d or 100 mg/d): maintain or increase the plasma spermidine concentration to similar (supra)physiological levels | number of animals that developed a more than 3-fold rise in normal urea levels (critically ill rabbits [4]; spermidine-treated animals, saline 18.8%, P 0.0461): 2.8% | number of animals that developed a more than 3-fold rise in normal creatinine levels (critically ill rabbits [4]; spermidine-treated animals, saline 25%, P 0.0161): 2.8% | oxygen consumption ([5]; day 20, 4 mM spermidine): reduced their oxygen consumption | quiescence status (upper and lower cell fractions) ([5]; gradient separation, 4 mM spermidine): resemble the status of quiescence
